PubChem BioAssay (NCI)
Where “and” joins values, the source holds several entries; their conditions need not be identical. Equal entries are not always repeated.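 Method: 48-hour compound exposure of cells in 96-well plates, five concentrations, linear interpolation of endpoints. The concentration for 50% growth inhibition is given as GI50. TGI: concentration producing complete growth inhibition.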

Tests used:
Assay in all cases: DTP human tumour cell line panel, 48 h
HCC-2998 colon = test system: HCC-2998 colon
HCT-116 colon = test system: HCT-116 colon
HOP-62 NSCLC = test system: HOP-62 NSCLC
K-562 leukemia = test system: K-562 leukemia
MOLT-4 leukemia = test system: MOLT-4 leukemia
NCI-H23 lung = test system: NCI-H23 lung
NCI-H522 lung = test system: NCI-H522 lung
SNB-75 CNS = test system: SNB-75 CNS
SR leukemia = test system: SR leukemia
NCI/ADR-RES ovarian = test system: NCI/ADR-RES ovarian

Row | SMILES | TGI (HCC-2998 colon) [µM] | TGI (HCT-116 colon) [µM] | TGI (HOP-62 NSCLC) [µM] | TGI (K-562 leukemia) [µM] | TGI (MOLT-4 leukemia) [µM] | TGI (NCI-H23 lung) [µM] | TGI (NCI-H522 lung) | TGI (SNB-75 CNS) [µM] | TGI (SR leukemia) [µM] | TGI (NCI/ADR-RES ovarian) [µM] | GI50 (HCC-2998 colon) [µM] | GI50 (HCT-116 colon) [µM] | GI50 (HOP-62 NSCLC) [µM] | GI50 (K-562 leukemia) [µM] | GI50 (MOLT-4 leukemia) [µM] | GI50 (NCI-H23 lung) [µM] | GI50 (NCI-H522 lung) [µM] | GI50 (NCI/ADR-RES ovarian) [µM] | GI50 (SNB-75 CNS) [µM] | GI50 (SR leukemia) [µM]
1 | N#CCCN(CCC#N)c1ccc(/C=C(/NC(=O)c2cc([N+](=O)[O-])ccc2Cl)C(=O)NN)cc1 | > 100 | > 100 | > 100 | > 100 | > 100 | > 100 | > 100 µM | > 100 | > 100 |  |  |  |  |  |  |  |  |  |  | 
2 | NC1N=Nc2ccccc21 (stereo unspecified) | > 100 | > 100 | > 100 | > 100 | > 100 | > 100 | > 100 µM | > 100 | > 100 |  |  |  |  |  |  |  |  |  |  | 
3 | CCc1ccccc1NC(=O)C(=O)C(C#N)c1ccccc1Cl (stereo unspecified) | > 100 | > 100 | > 100 |  | > 100 | > 100 |  | > 100 |  |  |  |  |  |  |  |  |  |  |  | 
4 | COc1ccc(Nc2nc3cc(C(F)(F)F)ccc3nc2-c2ccccc2)cc1OC | > 100 | > 100 | 39.3 | > 100 | > 100 | > 100 | > 100 µM | > 100 | > 100 |  |  |  |  |  |  |  |  |  |  | 
5 | Cc1cc(=O)[nH]c(CNC(=O)c2ccc3ccccc3c2)n1 | > 100 | > 100 | > 100 | > 100 | > 100 | > 100 | > 100 µM | > 100 | > 100 |  |  |  |  |  |  |  |  |  |  | 
6 | c1ccc2c(c1)SC(=C1Sc3ccccc3S1)S2 | > 100 |  | > 100 | > 100 | > 100 | > 100 |  | 73.3 |  |  |  |  |  |  |  |  |  |  |  | 
7 | Fc1cc(F)c(F)c(S)c1F | > 100 | > 100 | > 100 | > 100 | 66 | > 100 | 37.8 µM | > 100 |  | 38.6 |  |  |  |  |  |  |  |  |  | 
8 | N#CC(C#N)=NNc1ccc2cn[nH]c2c1 |  | 44.7 | > 100 | > 100 | 54.2 | 50 | 34.8 µM |  | 55.5 | > 100 |  |  |  |  |  |  |  |  |  | 
9 | CNS(=O)(=O)OCC1OC(n2cnc3cncnc32)C(O)C1O (stereo unspecified) | > 100 | > 100 | > 100 | > 100 | > 100 | > 100 | > 100 µM | > 100 |  | > 100 | > 100 | > 100 | > 100 | > 100 | > 100 | > 100 | > 100 | > 100 | > 100 | 
10 | [O-]/N=[N+](/[O-])C1CCCCC1=[N+]1CCOCC1 (stereo unspecified) |  | > 100 | > 100 | > 100 | > 100 | > 100 | > 100 µM |  | > 100 |  |  |  |  |  |  |  |  |  |  | 
11 | N/C=N/S(=O)(=O)c1ccc(NC(=O)COC(=O)c2cccc3c(=O)c4ccccc4[nH]c23)cc1 |  | > 100 | > 100 | > 100 | > 100 | > 100 | > 100 µM | > 100 |  |  |  |  |  |  |  |  |  |  |  | 
12 | CN1C(=O)CC2(C)c3cc(O)cc(Br)c3N(C)C12 (stereo unspecified) | > 100 | > 100 | > 100 | > 100 | > 100 | > 100 | > 100 µM | > 100 |  |  |  |  |  |  |  |  |  |  |  | 
13 | O=C(CCC(=O)Nc1ccc(Cl)c(Cl)c1)CC(=O)c1ccc2ccccc2c1 | > 100 | > 100 | > 100 | > 100 | > 100 | > 100 | > 100 µM | > 100 |  |  |  |  |  |  |  |  |  |  |  | 
14 | O=C(O)CN(c1ccccc1)S(=O)(=O)c1cccc([N+](=O)[O-])c1 |  |  |  | > 100 | > 100 | > 100 | > 100 µM | > 100 |  |  |  |  |  |  |  |  |  |  |  | 
15 | O=C(COc1ccccc1Cl)N1N=C(c2ccccc2)CC1(O)c1ccccc1 (stereo unspecified) | 33.6 | 51.3 | 28.5 | 54.9 | 58.8 | 25.1 | > 100 µM | > 100 | 32.8 |  |  |  |  |  |  |  |  |  |  | 
16 | O=C(Cc1ccccc1[N+](=O)[O-])C(CO)c1ccccc1[N+](=O)[O-] (stereo unspecified) | > 100 | > 100 | > 100 | > 100 | > 100 | > 100 | 70.5 µM | > 100 |  |  |  |  |  |  |  |  |  |  |  | 
17 | CC1CCC2C(C)C(=O)OC3OC4(C)CCC1C32OO4 (stereo unspecified) | > 100 | > 100 | > 100 | > 100 | > 100 | > 100 | > 92.6 µM | > 97.2 | > 100 |  |  |  | > 100 |  |  | > 100 |  |  |  | > 100
18 | COc1cccc(C=O)c1C(=O)c1cc(O)ccc1O | > 100 | 39.2 | > 100 |  | 27.5 | > 100 |  | > 100 | 24.1 |  |  |  |  |  |  |  |  |  |  | 

Row | SMILES | TGI (HCC-2998 colon) [µM] | TGI (HCT-116 colon) [µM] | TGI (HOP-62 NSCLC) [µM] | TGI (K-562 leukemia) [µM] | TGI (MOLT-4 leukemia) [µM] | TGI (NCI-H23 lung) [µM] | TGI (NCI-H522 lung) | TGI (SNB-75 CNS) [µM] | TGI (SR leukemia) [µM] | TGI (NCI/ADR-RES ovarian) [µM] | GI50 (HCC-2998 colon) [µM] | GI50 (HCT-116 colon) [µM] | GI50 (HOP-62 NSCLC) [µM] | GI50 (K-562 leukemia) [µM] | GI50 (MOLT-4 leukemia) [µM] | GI50 (NCI-H23 lung) [µM] | GI50 (NCI-H522 lung) [µM] | GI50 (NCI/ADR-RES ovarian) [µM] | GI50 (SNB-75 CNS) [µM] | GI50 (SR leukemia) [µM]
19 | COC(=O)C1CSC(c2csc(CCN)n2)=N1 (stereo unspecified) | > 100 | > 100 |  | > 100 | > 100 | > 100 | > 100 µM | > 100 | > 100 |  |  |  |  |  |  |  |  |  |  | 
20 | O=C1/C(=C/c2ccc([N+](=O)[O-])s2)Oc2cc(Cl)ccc21 |  |  | > 100 | 1.46 |  |  | 0.713 µM | 11.6 | 1.24 | > 100 |  |  | 7.9 | 0.296 |  |  | 0.25 | 3.02 | 2.04 | 0.303
21 | OCC1OC2c3ccccc3COC2C1OCc1ccccc1 (stereo unspecified) | > 100 | > 100 |  | > 100 | > 100 | > 100 | > 100 µM | > 100 | > 100 |  |  |  |  |  |  |  |  |  |  | 
22 | O=C(NC(=Nc1ccccc1)SCSC(=Nc1ccccc1)NC(=O)c1ccco1)c1ccco1 | > 100 | > 100 | 44.9 | > 100 | > 100 | 80.6 | 91.5 µM | 35.1 |  |  |  |  |  |  |  |  |  |  |  | 
23 | COC(=O)[C@H]1COC(=S)N1C(=O)[C@@H](C)[C@H](O)C(C)C | > 100 | > 100 | > 100 | > 100 | > 100 | > 100 |  | > 100 | > 100 |  |  |  |  |  |  |  |  |  |  | 
24 | C/C(CCn1[nH]c(=O)ccc1=O)=N\NC(=O)C(N)=O | > 100 | > 100 | > 100 | > 100 |  | > 100 | > 100 µM | > 100 |  |  |  |  |  |  |  |  |  |  |  | 
25 | Nc1nc(N)c(CCCCc2ccccc2)c(C=O)n1 | 76.6 | 27.9 | > 100 | 24.3 |  | 41.3 |  | 38 |  |  |  |  |  |  |  |  |  |  |  | 
26 | CC1(C)NC(=O)N(CCCCCCN2C(=O)NC(C)(C)C2=O)C1=O | > 100 | > 100 |  | > 100 | > 100 | > 100 | > 100 µM | > 100 |  |  |  |  |  |  |  |  |  |  |  | 
27 | N#CC(C#N)=CNCCN1CCN(C=C(C#N)C#N)CC1 |  | > 100 | > 100 | > 100 | > 100 | > 100 | > 100 µM |  | > 100 | > 100 |  |  |  |  |  |  |  |  |  | 
28 | COc1cc2c3c(n(CCCN4CCNCC4)c(=O)c2cc1OC)-c1cc2c(cc1C3=O)OCO2 | 3.98 | 2.42 | 0.138 | 18.3 | 0.533 | 1.47 | 15.7 µM | 11.1 |  | 11.5 | 1.15 | 0.281 | 0.0265 | 0.111 | 0.005 | 0.104 | 2.18 | 2.77 | 1.44 | 
29 | C/C(=N\NC(=S)N1CCN(c2ccccn2)CC1)c1ccccn1 | 15.3 | 13.8 | 12.7 | 0.0341 | 2.66 | 11.5 | 0.71 µM and 2.07 µM | 17.6 | 2.06 |  | 0.252 |  | 0.0475 |  |  |  | 0.179 |  |  | 0.0167
30 | COC(=O)Cc1c([C@@]2(C)CCCC(C)(C)C2)ccc2c1C(=O)OC2 |  | 22 |  | 19.4 | 18.2 | 34.6 | 19.8 µM | 28.7 |  |  |  |  |  |  |  |  |  |  |  | 
31 | O=Cc1cccc2ccc3ccccc3c12 | 94 | 39.4 | 52.4 |  |  | 66.5 | 52 µM | 43.6 |  | 38.3 |  |  |  |  |  |  |  |  |  | 
32 | Cc1ccc(C)c2c1C(=O)N(c1ccc(F)cc1F)C2=O |  | > 100 | > 100 | > 100 | > 100 | > 100 | > 100 µM | > 100 |  | > 100 |  | > 100 | > 100 | > 100 | > 100 | > 100 | > 100 | > 100 | > 100 | 
33 | O=[N+]([O-])c1cc(-c2nc(=S)[nH][nH]2)ccc1O | > 100 | > 100 | > 100 | > 100 |  | > 100 |  |  |  |  |  |  |  |  |  |  |  |  |  | 
34 | COC(=O)C1=COC2OC3C(C(C)O)C(=O)OC34C=CC1C24 (stereo unspecified) | > 100 | > 100 |  | > 100 | > 100 | > 100 | 30.5 µM | > 100 |  | 69 |  |  |  |  |  |  |  |  |  | 
35 | COc1ccc2c(c1)[n+]([O-])c(-c1cccc(Cl)c1)c(N)[n+]2[O-] |  | > 100 | > 100 | > 100 | > 100 | 65.6 | 30.4 µM |  | > 100 |  |  |  |  |  |  |  |  |  |  | 
